From paper PMC3355094 (PLoS Pathogens, 2012)
pKd: −log10 of the molar value. Where “and” joins values, the source holds several entries; their conditions need not be identical. Equal entries are not always repeated. Where two headings read alike, the source gives them in different places.

How the values were obtained:
[1] = tested on: CCL1; experiment: Glycan array analysis of CCL1 (CFG mammalian glycan array V4.2); type: binding, Coprinopsis cinerea; conditions: Alexa Fluor 488 labeled CCL1 200 µg/ml, array V4.2, average of triplicates
Method: (§1) Purified CCL1 and CCL2 were fluorescently labeled with Alexa Fluor 488 (Invitrogen) according to the manufacturer's protocol and used (at a final concentration of 200 µg/ml) to probe versions 4.2 and 3.1, respectively, of the mammalian glycan array offered by Core H of the Consortium for Functional Glycomics (CFG).

[2] = tested on: CCL2; experiment: Glycan array analysis of CCL2 (CFG mammalian glycan array V3.1); type: binding, Coprinopsis cinerea; conditions: Alexa Fluor 488 labeled CCL2 200 µg/ml, array V3.1, average of triplicates
Method: as §1

[3] = target: RSL; type: binding; conditions: read-out: KD [μmol]; cited from earlier work
[4] = target: T1, CCL2 (Wild type) (Coprinopsis cinerea, UniProt B3GA02); experiment: biochemical; type: binding
T1 construct: recombinant from E. coli, eight N-terminal His-residues (His8), monomer

[5] = target: T2, CCL2 wild-type (Coprinopsis cinerea, UniProt B3GA02); type: binding
[6] = target: MOA; experiment: Literature thermodynamic binding data of lectin-carbohydrate interactions compiled in Table S6 for comparison; conditions not given; parameters: method as in values quoted from other papers; conditions: read-out: KD [μmol]; cited from earlier work
[7] = target: T2, CCL2 wild-type; type: binding; remark: listed apart in the source
[8] = target: Calreticulin; experiment: Literature thermodynamic binding data of lectin-carbohydrate interactions compiled in Table S6 for comparison; conditions not given; parameters: method as in values quoted from other papers; conditions: read-out: KD [μmol]; cited from earlier work
[9] = parameters: method as in ref 3 of Table S6 (Gupta et al. 2008); conditions: ligand Glc1,3Man1,2ManOMe; ref 3 of Table S6 (Gupta et al. 2008); cited from earlier work
[10] = ligand Glc1,3Man1,2Man1,2Man; ref 2 of Table S6 (Kozlov et al. 2010); cited from earlier work
[11] = parameters: method as in ref 5 of Table S6 (Turnbull et al. 2004); conditions: ligand GM1os; ref 5 of Table S6 (Turnbull et al. 2004); cited from earlier work

T2 sequence (B3GA02 2-142 limits assumed): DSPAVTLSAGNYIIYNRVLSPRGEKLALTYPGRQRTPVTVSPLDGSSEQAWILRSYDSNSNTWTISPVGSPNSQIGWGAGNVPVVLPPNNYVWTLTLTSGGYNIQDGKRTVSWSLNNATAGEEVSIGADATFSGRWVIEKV
T1 sequence (B3GA02 2-142): as the sequence (B3GA02 2-142 limits assumed) above

In the case of 6-H2PO3Man-Sp8, the “RFU (relative fluorescence units)” value [1] was 3 RFU and the “RFU (relative fluorescence units)” value [2] was 118.9 RFU.

For `C[C@@H]1O[C@@H](O[C@H]2[C@H](O[C@H]3[C@H](O)[C@@H](O)C(O)O[C@@H]3CO)O[C@H](CO)[C@H](O)[C@@H]2O)[C@@H](O)[C@H](O)[C@@H]1O` (stereo partly drawn) [2-Fucosyllactose, 2'-fucosyllactose], the pKd [3] is listed as 6.60.

In the case of `CO[C@@H]1O[C@@H](C)[C@@H](O)[C@@H](O)[C@@H]1O` [FucOMe, methyl fucopyranoside], the pKd [3] is listed as 6.14.

For `CO[C@@H]1O[C@H](CO)[C@@H](O)[C@H](O[C@@H]2O[C@@H](C)[C@@H](O)[C@@H](O)[C@@H]2O)[C@H]1NC(C)=O` [Fucα1,3GlcNAc-OMe, Fucα1,3GlcNAc methyl glycoside], the pKd [4] was under 3.30.

With `CO[C@@H]1O[C@H](CO)[C@@H](O)[C@H](O[C@@H]2O[C@@H](C)[C@@H](O)[C@@H](O)[C@@H]2O)[C@H]1NC(C)=O` [Fucα1,3GlcNAc-OMe] the NMR titration [5] was “no binding”.

In the case of `CC(=O)N[C@H]1C(O)O[C@H](CO)[C@@H](O[C@@H]2O[C@H](CO)[C@H](O)[C@H](O[C@H]3O[C@H](CO)[C@H](O)[C@H](O)[C@H]3O)[C@H]2O)[C@@H]1O` (stereo partly drawn) [Gal1,3Gal1,4GlcNAc, Galα1,3Galβ1,4GlcNAc], the pKd [6] is listed as 4.37.

In the case of `C[C@@H]1O[C@@H](O[C@H]2C(O)O[C@H](CO)[C@H](O)[C@@H]2O[C@H]2O[C@H](CO)[C@H](O)[C@H](O)[C@H]2O)[C@@H](O)[C@H](O)[C@@H]1O` (stereo partly drawn) [Galα1,3[Fucα1,2]Gal, blood group B trisaccharide], the pKd [6] is listed as 4.44.

With `CC(=O)NC1C(OC2C(CO)OC(O)C(O)C2O)OC(CO)C(OC2OC(CO)C(O)C(O)C2O)C1OC1OC(C)C(O)C(O)C1O` (stereo not drawn) [Galβ1,4[Fucα1,3]GlcNAcβ1,4Gal] the NMR titration [5] was “large chemical shift deviations, slow to intermediate exchange”.

For `CO[C@@H]1O[C@H](CO)[C@@H](O[C@@H]2O[C@H](CO)[C@H](O)[C@H](O)[C@H]2O)[C@H](O[C@@H]2O[C@@H](C)[C@@H](O)[C@@H](O)[C@@H]2O)[C@H]1NC(C)=O` [Galβ1,4[Fucα1,3]GlcNAcβ1-OMe, Lewis X trisaccharide methyl glycoside], the pKd [4] was 3.34.

Compound `CO[C@@H]1O[C@H](CO)[C@@H](O[C@@H]2O[C@H](CO)[C@H](O)[C@H](O)[C@H]2O)[C@H](O[C@@H]2O[C@@H](C)[C@@H](O)[C@@H](O)[C@@H]2O)[C@H]1NC(C)=O` [Galβ1,4[Fucα1,3]GlcNAcβ1-OMe] has a drop in affinity [7] of about 300 fold.

In the case of `CO[C@H]1O[C@H](CO)[C@@H](O)[C@H](O)[C@@H]1O[C@H]1O[C@H](CO)[C@@H](O)[C@H](O[C@H]2O[C@H](CO)[C@@H](O)[C@H](O)[C@H]2O)[C@@H]1O` [Glc1,3Man1,2ManOMe, Glcα1,3Manα1,2Manα-OMe (methyl glycoside)], the pKd [8] is given as 5.74.

In the case of `CC(=O)N[C@H]1[C@H](O[C@H]2[C@H](O[C@@H]3O[C@@H](C)[C@@H](O)[C@@H](O)[C@@H]3O)[C@@H](NC(C)=O)[C@H](OCCCCCC(=O)O)O[C@@H]2CO)O[C@H](CO)[C@@H](O)[C@@H]1O` [GlcNAcβ1,4[Fucα1,3]GlcNAcβ1-sp, GlcNAcβ1,4[Fucα1,3]GlcNAcβ-O(CH2)5COONa], the NMR titration ([5]; carbohydrate titrated to CCL2 wild-type) was “large chemical shift deviations, slow exchange”, the ΔH [7] was -11.9 kcal/mol and the “−TΔS” value [7] was 3.9 kcal/mol.

For `OC[C@H]1O[C@H](O[C@@H]2[C@H](O)[C@@H](O[C@@H]3[C@@H](O[C@@H]4C(O)O[C@H](CO)[C@@H](O)[C@@H]4O)O[C@H](CO)[C@@H](O)[C@@H]3O)O[C@H](CO)[C@H]2O)[C@H](O)[C@@H](O)[C@@H]1O` (stereo partly drawn) [Glcα1,3Manα1,2Manα1,2Man, Glcα1,3Manα1,2Manα1,2Man tetrasaccharide], the pKd [8] is listed as 6.11.

For (Gal1-4GlcNAc)2-3,6-GalNAc-Sp8, the “RFU (relative fluorescence units)” value [2] was 397.4 RFU.

For -D-Gal–Sp8, the “RFU (relative fluorescence units)” value [2] was 280.7 RFU and 194.7 RFU.

In the case of -GalNAc–Sp8, the “RFU (relative fluorescence units)” value [2] was 151.8 RFU and 273.6 RFU.

In the case of -GlcNAc–Sp8, the “RFU (relative fluorescence units)” value [2] was 160.7 RFU.

In the case of -L-Fuc–Sp9, the “RFU (relative fluorescence units)” value [2] was 136.8 RFU.

For -Neu5Ac-Sp8, the “RFU (relative fluorescence units)” value [2] was 122.4 RFU.

With -Neu5Ac–Sp8 the “RFU (relative fluorescence units)” value [2] was 247.4 RFU.

With -Neu5Ac–Sp11 the “RFU (relative fluorescence units)” value [2] was 119.3 RFU.

In the case of Calreticulin, the “–TΔS” value [9] is given as -0.813 kcal/mol, the “–ΔH” value [9] is given as 7.15 kcal/mol and the “–TΔS” value [10] is given as 3.75 kcal/mol. The “–ΔH” value [10] was 12 kcal/mol.

In the case of “Cholera toxin B subunit (CTB): cholera-toxin B subdomain”, the “–TΔS” value [11] is given as 7.36 kcal/mol and the “–ΔH” value [11] is given as 17.3 kcal/mol.

With “Gal1-3GlcNAc1-2Man1-3(Gal1-3GlcNAc1-2Man1-6)Man1-4GlcNAc1-4GlcNAc-Sp19” the “RFU (relative fluorescence units)” value [2] was 453.7 RFU.

In the case of “Gal1-4GlcNAc1-2Man1-3(Gal1-4GlcNAc1-2Man1-6)Man1-4GlcNAc1-”, the “RFU (relative fluorescence units)” value [2] was 575.8 RFU.

For “GlcNAc1-2Man1-3(GlcNAc1-2Man1-6)Man1-4GlcNAc1-4GlcNAc-Sp13”, the “RFU (relative fluorescence units)” value [1] was 68 RFU and the “RFU (relative fluorescence units)” value [2] was 674.3 RFU.

In the case of “GlcNAc1-3(GlcNAc1-4)(GlcNAc1-6)GlcNAc-Sp8”, the “RFU (relative fluorescence units)” value [1] was 264 RFU and the “RFU (relative fluorescence units)” value [2] was 103.1 RFU.
